Patent publication US9138466B2, “Factor H for transplantation” (Baxter International Inc., priority 2013, dated 2015)
Several values for one entry are separate records, joined by “and”; a condition that tells them apart may be missing. Identical values can stand only once. Marks after values point to notes of the source that are not given here.

How the values were obtained:
Type in all cases: in vivo
[1] = tested on: C3H kidney allografts in pre-sensitized B6 recipients; assay: Pre-sensitized mouse kidney allograft model, RAPA / CFH / FK506, graft survival (Example 2)
Text: Male C3H (H-2k) and C57BL/6 (B6, H-2b) mice (25-30 g) were used to determine the efficacy of Rapamycin (RAPA) in combination with Factor H (FH) during transplant rejection. C3H mice served as skin graft and kidney donors for pre-sensitization and kidney transplantation. Male C57BL/c (B6) mice were used as recipients. The B6 recipients were pre-sensitized by transplantation of the donor skin grafts, and were subsequently transplanted with kidney allografts between 15 and 20 days after the skin transplantation. […]
Mice were monitored daily for signs of rejection and were euthanized at the end point of the experiment, which was defined as when transplants developed functional deterioration due to severe rejection or on POD60 and POD100. Renal graft function was monitored by plasma creatinine (Cr) blood urea nitrogen (BUN) and hematocrit (Hct) levels by an I-Stat potable analyzer (Abaxis). Circulating donor specific antibodies (DSAs) were determined prior to kidney transplantation and at the endpoint of study by flow cytometry.

[2] = tested on: collagen antibody-induced arthritis in Balb C mice; assay: Mouse CAIA, histopathology of hind limbs (ankle, H & E) (Example 4); conditions: for Composite Histopathaligy Score / Score From H & E, Bone Resorption / Score From H & E, Cartilage Damage / Score From H & E, Inflammation / Score From H & E, Pannus / Score From H & E, Periosteal Exostotic Changes: ankle; for Score From H & E, Bone Resorption / Score From H & E, Cartilage Damage / Score From H & E, Inflammation / Score From H & E, Pannus / Score From H & E, Periosteal Exostotic Changes: score 0 = normal to 5 = severe
[3] = tested on: collagen antibody-induced arthritis in Balb C mice; assay: Mouse CAIA, hind paw volume / footpad swelling (Example 4); parameters: Mean Disease Burden / Hind Limb Volume, Mean Diff. / Total Disease, Mean Diff.: unit not given here; conditions: for Total Footpad Thickness, Day of Study 8: day 8; for Total Footpad Thickness, Day of Study 11: day 11; for Total Footpad Thickness, Day of Study 12: day 12; for Total Footpad Thickness, Day of Study 13: day 13; for Total Footpad Thickness, Day of Study 15: day 15; for Total Footpad Thickness, Day of Study 19: day 19; for Total Footpad Thickness, Day of Study 22: day 22; for % Disease Suppression: footpad thickness AUC vs vehicle; for Total Disease Burden (AUC): footpad thickness days 8-22, in mL·day
[4] = tested on: collagen antibody-induced arthritis in Balb C mice; assay: Mouse CAIA, clinical score (Example 4); parameters: key to Mean Maximum Clinical Score: scored 0 to 60, sum of 4 limbs
[5] = Mouse CAIA, body weight and tolerability (Example 4)
Description: Balb C mice (n=10 per cohort) were used to determine the efficacy of Factor H (FH) during transplant rejection. The mice were treated with ArthritoMAb (anti-collagen) antibody cocktail (2 mg, i.v.) on day 1, followed 7 days later with an injection of LPS (50 μg, i.p.). On day 8, hind paw volumes were measured for each animal and distributed to various treatment groups.
Hind paw volumes were measured on day 8, 11, 12, 13, 15, 19 and 22 (endpoint). The age at start date was 7 to 9 weeks. Body weights were measured bi-weekly to the endpoint (Table 4). At the endpoint, tissue samples were processed for histology and submitted to a pathologist for independent analysis. Sampling 1 was performed at the endpoint. The hind limbs were preserved in 10% formalin. Sampling 2 was performed at the endpoint for group 4 animals. Blood was collected by terminal cardiac puncture. The blood was processed for anti-coagulant. The kidneys were additionally preserved in formalin and followed with 70% EtOH. Samples were scored for inflammation, pannus (granulation tissue), cartilage damage, bone resorption and exostosis (Table 5).

[6] = Dunn's Multiple Comparison Test, G1 vehicle vs treatment
[7] = individual animal, listed as Group 3
[8] = Dunnett's Multiple Comparison Test, G1 vehicle vs treatment
[9] = Dunnett's Multiple Comparison Test, vehicle vs treatment

## CO[C@H]1C[C@@H]2CC[C@@H](C)[C@@](O)(O2)C(=O)C(=O)N2CCCC[C@H]2C(=O)O[C@H]([C@H](C)C[C@@H]2CC[C@@H](O)[C@H](OC)C2)CC(=O)[C@H](C)/C=C(\C)[C@@H](O)[C@@H](OC)C(=O)[C@H](C)C[C@H](C)/C=C/C=C/C=C/1C [RAPA Alone, Rapamycin]
[1]; individual grafts, pre-sensitized kidney transplant model
  Survival: 8 days (2×) and 37 days and 10 days and 11 days and 12 days and 22 days and 14 days and 16 days and 20 days
[1]; per cohort, untreated controls 8 days
  MST (mean survival time): 14 days

## Etanercept
[2]; [6]
  Cartilage, Difference in rank sum: −1.5
  Cartilage, Significant? P < 0.05?: No
  Composite, Difference in rank sum: 2.1
  Composite, Significant? P < 0.05?: No
  Exostosis, Difference in rank sum: 5.8
  Exostosis, Significant? P < 0.05?: No
  Inflammation, Difference in rank sum: 3.6
  Inflammation, Significant? P < 0.05?: No
  Pannus, Difference in rank sum: 0.3
  Pannus, Significant? P < 0.05?: No
[2]; group mean
  Composite Histopathaligy Score: 6.0 ± 2.1
  Score From H & E, Bone Resorption: 1.0 ± 0.4
  Score From H & E, Cartilage Damage: 0.7 ± 0.3
  Score From H & E, Inflammation: 1.5 ± 0.5
  Score From H & E, Pannus: 1.4 ± 0.5
  Score From H & E, Periosteal Exostotic Changes: 1.4 ± 0.8
[2]; [7]
  Score From H & E, Bone Resorption: 1 and 0 (6×) and 3 (3×)
  Score From H & E, Cartilage Damage: 1 (3×) and 0 (5×) and 2 (2×)
  Score From H & E, Inflammation: 1 (4×) and 3 (3×) and 0 (2×) and 2
  Score From H & E, Pannus: 1 and 0 (5×) and 4 (2×) and 2 (2×)
  Score From H & E, Periosteal Exostotic Changes: 4 and 0 (6×) and 1 and 3 (2×)
  Composite Histopathaligy Score: 11 (2×) and 0 (5×) and 16 and 15 and 1
[2]; histopathology summary, graded 1-5, vehicle 0.6 ± 0.3
  Bone Resorption: 1.0 ± 0.4^ns
[2]; histopathology summary, graded 1-5, vehicle 1.0 ± 0.3
  Pannus: 1.4 ± 0.5^ns
[2]; histopathology summary, graded 1-5, vehicle 2.0 ± 0.5
  Inflammation: 1.5 ± 0.5^ns
[2]; histopathology summary, graded 1 to 5, vehicle 2.6 ± 0.5
  Exostosis: 1.4 ± 0.6^ns
[2]; histopathology summary, vehicle 0.5 ± 0.2
  Cartilage Damage: 0.7 ± 0.3^ns
[2]; histopathology summary, vehicle 6.7 ± 1.7
  Composite Score: 6.0 ± 2.1^ns
[3]; AUC of combined footpad volume over baseline, days 8 to 22, group mean, vehicle 1.93
  Mean Disease Burden: 0.74**
[3]; [8]
  Total Disease, 95% CI of diff: 0.441 to 1.94
  Total Disease, Mean Diff.: 1.19
  Total Disease, Significant? P < 0.05?: Yes
  Total Disease, Summary: ** (**= P < 0.01)
  Total Disease, q: 3.9
[3]; [9]
  Hind Limb Volume, 95% CI of diff: 0.02587 to 0.1370
  Hind Limb Volume, Mean Diff.: 0.08143
  Hind Limb Volume, Significant? P < 0.05?: Yes
  Hind Limb Volume, Summary: ** (**= P < 0.01)
  Hind Limb Volume, q: 3.674
[3]; group mean, n 10
  Total Footpad Thickness, Day of Study 8: 0.35 mL
  Total Footpad Thickness, Day of Study 11: 0.44 mL
  Total Footpad Thickness, Day of Study 12: 0.44 mL
  Total Footpad Thickness, Day of Study 13: 0.42 mL
  Total Footpad Thickness, Day of Study 15: 0.38 mL
  Total Footpad Thickness, Day of Study 19: 0.42 mL
  Total Footpad Thickness, Day of Study 22: 0.38 mL
  % Disease Suppression: 61.66%
  Total Disease Burden (AUC): 0.74
[3]; individual animals (A# 1-10)
  Total Footpad Thickness, Day of Study 8: 0.41 mL and 0.4 mL and 0.38 mL and 0.37 mL and 0.35 mL and 0.34 mL and 0.32 mL and 0.31 mL and 0.3 mL (2×)
  Total Footpad Thickness, Day of Study 11: 0.49 mL and 0.44 mL (2×) and 0.37 mL and 0.38 mL and 0.39 mL and 0.4 mL (2×) and 0.45 mL and 0.41 mL
  Total Footpad Thickness, Day of Study 12: 0.58 mL and 0.44 mL and 0.35 mL and 0.42 mL and 0.48 mL and 0.49 mL and 0.45 mL and 0.39 mL (2×) and 0.4 mL
  Total Footpad Thickness, Day of Study 13: 0.58 mL and 0.41 mL (2×) and 0.36 mL and 0.33 mL and 0.49 mL and 0.39 mL and 0.35 mL and 0.43 mL and 0.4 mL
  Total Footpad Thickness, Day of Study 15: 0.45 mL and 0.48 mL and 0.34 mL and 0.37 mL and 0.43 mL and 0.41 mL and 0.33 mL (2×) and 0.32 mL and 0.3 mL
  Total Footpad Thickness, Day of Study 19: 0.61 mL and 0.43 mL and 0.4 mL and 0.47 mL (2×) and 0.32 mL and 0.42 mL and 0.35 mL and 0.33 mL and 0.38 mL
  Total Footpad Thickness, Day of Study 22: 0.55 mL and 0.41 mL (2×) and 0.34 mL (2×) and 0.39 mL and 0.36 mL (3×) and 0.32 mL
  % Disease Suppression: 16.3% and 74.3% and 109.8% and 83.9% and 52.3% and 49.7% and 69.4% and 70.2% and 29.0% and 63.7%
  Total Disease Burden (AUC): 1.62 and 0.56 and −0.19 and 0.35 and 0.92 and 0.97 and 0.59 and 0.58 and 1.37 and 0.70
[3]; mean combined foot pad volume, day 8 vs median day of maximal swelling, vehicle 0.21
  Maximum Δ Mean Volume: 0.13** ml
[3]; percent decrease in total disease burden relative to vehicle
  % Disease Suppression (vs Vehicle): 61.7%
[4]; [6]
  Clinical Score, Difference in rank sum: 3.55
  Clinical Score, Significant? P < 0.05?: No
[4]; day 8, group mean n=10
  Clinical score, Mean: 5.50
[4]; day 8, individual animal
  Clinical score: 0 (5×) and 15 and 10 (4×)
[4]; day 11, group mean n=10
  Clinical score, Mean: 19.60
[4]; day 11, individual animal
  Clinical score: 12 (2×) and 34 and 28 and 4 and 15 and 43 and 11 and 10 and 27
[4]; day 12, group mean n=10
  Clinical score, Mean: 37.10
[4]; day 12, individual animal
  Clinical score: 32 and 50 (2×) and 45 and 27 and 35 and 26 and 20 and 34 and 52
[4]; day 13, group mean n=10
  Clinical score, Mean: 35.50
[4]; day 13, individual animal
  Clinical score: 32 and 50 and 45 (2×) and 21 and 35 and 30 and 15 and 34 and 48
[4]; day 15, group mean n=10
  Clinical score, Mean: 31.50
[4]; day 15, individual animal
  Clinical score: 32 and 49 and 21 and 48 and 25 and 45 and 15 and 10 and 24 and 46
[4]; day 19, group mean n=10
  Clinical score, Mean: 28.40
[4]; day 19, individual animal
  Clinical score: 32 and 48 and 34 and 25 and 5 and 45 and 20 and 10 and 26 and 37
[4]; day 22, group mean n=10
  Clinical score, Mean: 25.70
[4]; day 22, individual animal
  Clinical score: 32 and 41 and 34 and 18 (3×) and 40 and 10 and 23 and 26
[4]; group line 'Mean', day of study
  Day (of Max Clin Score), Mean: 12.00
[4]; group mean n=10
  Max Clin Score, Mean: 38.60
[4]; individual animal
  Max Clin Score: 32 and 50 (2×) and 45 and 48 and 35 and 30 and 20 and 34 and 52
[4]; individual animal, day of study
  Day (of Max Clin Score): 12 (8×) and 22 and 16
[4]; scored from 0 to 60, sum of 4 limbs, vehicle 45.4
  Mean Maximum Clinical Score: 39.6^ns
[5]; day 1, group mean n=10, before dosing start (day 8)
  Body Weight, Wt (g), Mean: 17.3 g
[5]; day 1, individual animal, before dosing start (day 8)
  Body Weight, Wt: 16.7 g and 17.3 g and 16.5 g (2×) and 18 g (2×) and 17.7 g and 17.5 g and 16.8 g and 17.6 g
[5]; day 5, group mean n=10, before dosing start (day 8)
  Body Weight, Wt (g), Mean: 17.7 g
[5]; day 5, individual animal, before dosing start (day 8)
  Body Weight, Wt: 18.5 g (2×) and 17.4 g (2×) and 18.2 g and 16.6 g and 17.3 g and 17 g and 18.1 g and 18.3 g
[5]; day 8, group mean n=10
  Body Weight, Wt (g), Mean: 16.3 g
[5]; day 8, individual animal
  Body Weight, Wt: 16.5 g and 16.4 g (2×) and 16.1 g (2×) and 15.7 g (2×) and 16.2 g and 16.6 g and 17.1 g
[5]; day 12, group mean n=10
  Body Weight, Wt (g), Mean: 17 g
[5]; day 12, individual animal
  Body Weight, Wt: 16.6 g and 16.7 g (2×) and 17.8 g (2×) and 17.9 g and 15.5 g and 17.1 g and 17.7 g
[5]; day 15, group mean n=10
  Body Weight, Wt (g), Mean: 17.4 g
[5]; day 15, individual animal
  Body Weight, Wt: 17.1 g and 17.8 g and 17 g and 17.7 g and 16.6 g and 18 g (2×) and 17.9 g and 16.2 g and 17.6 g
[5]; day 19, group mean n=10
  Body Weight, Wt (g), Mean: 17.9 g
[5]; day 19, individual animal
  Body Weight, Wt: 18.3 g (2×) and 17.7 g and 18.4 g and 14.6 g and 18.8 g and 18.6 g (2×) and 16.5 g and 19.1 g
[5]; day 22, group mean n=10
  Body Weight, Wt (g), Mean: 18.1 g
[5]; day 22, individual animal
  Body Weight, Wt: 18.8 g and 18.3 g and 17.8 g and 18.7 g and 15.8 g and 18 g and 18.2 g and 17.3 g and 18.6 g and 19.6 g
[5]; lowest group mean body weight as % change from day 1, vehicle −8.0%
  Mean Body Weigh at Nadir: −5.7%
